Data from US10227329B2, “Compounds useful for treating disorders related to RET” (BLUEPRINT MEDICINES CORPORATION, priority 2016, dated 2019).

Tests used:
[1] = target: RET V804L (Homo sapiens (Human), UniProt P07949, V804L); assay: RET V804L Gatekeeper Mutant Assay at KM (Caliper electrophoretic mobility shift); assay type: biochemical; conditions: 10 μM ATP (KM), read-out: V480L Mutant
[2] = target: wild type RET (Homo sapiens (Human), UniProt P07949); assay: RET Wild Type Assay at KM (Caliper electrophoretic mobility shift); assay type: biochemical; conditions: 25 μM ATP (KM)
Chain of wild type RET (P07949 29-1114): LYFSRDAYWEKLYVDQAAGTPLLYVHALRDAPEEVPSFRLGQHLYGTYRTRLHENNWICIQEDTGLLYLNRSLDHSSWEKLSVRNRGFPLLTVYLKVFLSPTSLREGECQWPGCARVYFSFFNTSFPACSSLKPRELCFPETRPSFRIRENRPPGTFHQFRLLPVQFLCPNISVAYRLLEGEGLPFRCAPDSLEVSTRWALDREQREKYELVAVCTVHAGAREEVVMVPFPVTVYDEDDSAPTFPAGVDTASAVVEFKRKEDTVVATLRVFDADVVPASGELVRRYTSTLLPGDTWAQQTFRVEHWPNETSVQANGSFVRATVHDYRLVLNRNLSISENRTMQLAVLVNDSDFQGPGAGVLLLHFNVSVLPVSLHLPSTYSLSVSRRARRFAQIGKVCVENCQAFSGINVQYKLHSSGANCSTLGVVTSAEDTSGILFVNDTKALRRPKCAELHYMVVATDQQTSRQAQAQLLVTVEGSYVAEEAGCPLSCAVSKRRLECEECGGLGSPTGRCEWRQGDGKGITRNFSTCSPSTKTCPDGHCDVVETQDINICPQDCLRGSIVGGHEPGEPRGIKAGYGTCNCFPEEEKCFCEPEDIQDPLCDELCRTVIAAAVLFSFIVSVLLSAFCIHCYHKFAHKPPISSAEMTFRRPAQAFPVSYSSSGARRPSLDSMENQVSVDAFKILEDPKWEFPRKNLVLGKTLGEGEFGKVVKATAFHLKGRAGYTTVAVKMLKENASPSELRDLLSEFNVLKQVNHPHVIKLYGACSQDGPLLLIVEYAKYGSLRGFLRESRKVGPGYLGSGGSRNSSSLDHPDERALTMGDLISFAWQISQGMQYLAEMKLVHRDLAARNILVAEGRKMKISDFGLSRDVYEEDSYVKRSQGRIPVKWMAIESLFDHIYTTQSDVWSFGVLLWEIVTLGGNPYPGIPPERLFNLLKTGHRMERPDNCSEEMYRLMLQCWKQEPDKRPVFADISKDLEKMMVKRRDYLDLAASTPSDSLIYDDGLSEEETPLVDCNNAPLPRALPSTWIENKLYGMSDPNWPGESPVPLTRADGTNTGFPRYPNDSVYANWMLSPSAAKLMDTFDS

Chain of RET V804L (P07949 29-1114 V804L): as the sequence (P07949 29-1114) above, with V776L counted along it

SMILES	IC50 [1]	IC50 [2]
COC1(C(=O)NCc2ccc(-n3cc(F)cn3)nc2)CN(c2nc(Nc3cc(C)[nH]n3)cc(C)c2C#N)C1 [Compound 184]	< 10 nM	< 10 nM
COC1(C(=O)NCc2ccc(N3CC[C@H](F)C3)nc2)CN(c2nc(C)cc(Nc3cc(C)[nH]n3)n2)C1 [Compound 154]	> 100 nM	> 100 nM
COC1(C(=O)N[C@@H](C)c2ccc(-n3cc(F)cn3)nc2)CN(c2nc(Nc3cc(C)[nH]n3)cc(C)c2C#N)C1 [Compound 212]	< 10 nM	< 10 nM
COC1(C(=O)NCc2ccc(-n3ccc(C)n3)nc2)CN(c2nc(C)cc(Nc3cc(C)[nH]n3)n2)C1 [Compound 137]	< 10 nM	< 10 nM
COC1(C(=O)NCc2ccc(-n3cc(Cl)cn3)nc2)CN(c2nc(C)cc(Nc3cc(C)[nH]n3)n2)C1 [Compound 172]	< 10 nM	< 10 nM
Cc1cc(Nc2cc(C)[nH]n2)nc(N2CCC(CC#N)(C(=O)N[C@@H](C)c3ccc(-n4cccn4)nc3)CC2)n1 [Compound 206]	< 10 nM	< 10 nM
Cc1cc(Nc2cc(C(F)F)cc(N3CC(F)(C(=O)NCc4ccc(-n5cc(F)cn5)nc4)C3)n2)n[nH]1 [Compound 180]	< 10 nM	< 10 nM
Cc1cc(Nc2cc(C)[nH]n2)nc(N2CC(F)(C(=O)N[C@@H](C)c3ccc(-n4cccn4)nc3)C2)n1 [Compound 122]	< 10 nM	< 10 nM
COC1(C(=O)NCc2ccc(-n3cc(F)cn3)nc2)CN(c2nc(C)cc(Nc3cc(C)[nH]n3)n2)C1 [Compound 148]	< 10 nM	< 10 nM
Cc1cc(Nc2cc(C)[nH]n2)nc(N2CC(C)(C(=O)N[C@@H](C)c3ccc(-n4cccn4)nc3)C2)c1 [Compound 117]	< 10 nM	< 10 nM
COC1(C(=O)NCc2cnc(-n3ccc(C(F)F)n3)cn2)CN(c2nc(C)cc(Nc3cc(C)[nH]n3)n2)C1 [Compound 205]	< 10 nM	10 to 100 nM
COC1(C(=O)N[C@@H](C)c2ccc(-n3cccn3)nc2)CN(c2cc(C(F)F)cc(Nc3cc(C)[nH]n3)n2)C1 [Compound 201]	< 10 nM	< 10 nM
COc1ccc([C@H](C)NC(=O)C2(O)CCN(c3cc(C)cc(Nc4cc(C)[nH]n4)n3)CC2)cc1 [Compound 114]	10 to 100 nM	10 to 100 nM
COc1ccc([C@H](C)NC(=O)C2(OC)CCN(c3nc(C)cc(Nc4cc(C)[nH]n4)n3)CC2)cc1 [Compound 123]	10 to 100 nM	10 to 100 nM
Cc1cc(Nc2cc(C)[nH]n2)nc(N2CCC(O)(C(=O)NCc3ccc(-n4cccn4)nc3)CC2)c1 [Compound 131]	< 10 nM	< 10 nM
COC1(C(=O)NCc2ccc(-n3cc(F)cn3)nn2)CN(c2nc(C)cc(Nc3cc(C)[nH]n3)n2)C1 [Compound 150]	10 to 100 nM	10 to 100 nM
COC1(C(=O)N[C@@H](C)c2ccc(-n3cccn3)nc2)CCN(c2cc(C)cc(Nc3cc(C)[nH]n3)n2)CC1 [Compound 181]	< 10 nM	< 10 nM
Cc1cc(N2CCC(CC#N)(C(=O)N[C@@H](C)c3ccc(-n4cc(F)cn4)nc3)CC2)nc(Nc2cc(C)[nH]n2)n1 [Compound 224]	< 10 nM	< 10 nM
COc1ccc(CNC(=O)C2(O)CCN(c3nc(C)cc(Nc4cc(C)[nH]n4)n3)CC2)cc1 [Compound 106]	10 to 100 nM	> 100 nM
COC1(C(=O)NCc2ccc(-n3cc(C)cn3)nc2)CN(c2nc(C)cc(Nc3cc(C)[nH]n3)n2)C1 [Compound 138]	< 10 nM	10 to 100 nM
COC1(C(=O)N[C@@H](C)c2ccc(-n3cccn3)nc2)CCN(c2nc(C)cc(Nc3cc(C)[nH]n3)n2)CC1 [Compound 186]	< 10 nM	< 10 nM
Cc1cc(Nc2cc(C)[nH]n2)nc(N2CCC(O)(C(=O)NCc3ccc(-n4nc(C)cc4C)nc3)CC2)c1 [Compound 182]	< 10 nM	< 10 nM
Cc1cc(Nc2cc(C)c(C#N)c(N3CC(F)(C(=O)N[C@@H](C)c4ccc(-n5cccn5)nc4)C3)n2)n[nH]1 [Compound 157]	< 10 nM	< 10 nM
COC1(C(=O)N[C@@H](C)c2cnc(-n3cc(F)cn3)cn2)CCN(c2nc(C)cc(Nc3cc(C)[nH]n3)n2)CC1 [Compound 221]	< 10 nM	< 10 nM
Cc1cc(Nc2cc(C)[nH]n2)nc(N2CCC(C)(C(=O)N[C@@H](C)c3ccc(-n4cc(F)cn4)nc3)CC2)c1 [Compound 188]	< 10 nM	< 10 nM
Cc1cc(Nc2cc(C)[nH]n2)nc(N2CCC(C(=O)N[C@@H](C)c3ccc(-n4cc(F)cn4)nc3)CC2)c1 [Compound 164]	< 10 nM	< 10 nM
COC1(C(=O)NCc2ccc(-n3ccc(C4CC4)n3)nc2)CN(c2cc(C)cc(Nc3cc(C)[nH]n3)n2)C1 [Compound 177]	< 10 nM	< 10 nM

Results, then the compound that gave them:

IC50 [1]	IC50 [2]	SMILES
< 10 nM	< 10 nM	Cc1cc(Nc2cc(C)[nH]n2)nc(N2CC(C#N)(C(=O)N[C@@H](C)c3ccc(-n4cccn4)nc3)C2)n1 [Compound 126]
10 to 100 nM	> 100 nM	COC1(C(=O)NCc2ccc(N3CC[C@@H](F)C3)nc2)CN(c2nc(C)cc(Nc3cc(C)[nH]n3)n2)C1 [Compound 155]
< 10 nM	< 10 nM	Cc1cc(Nc2cc(C)c(F)c(N3CC(C(=O)N[C@@H](C)c4ccc(-n5cc(F)cn5)nc4)C3)n2)n[nH]1 [Compound 152]
10 to 100 nM	10 to 100 nM	COC1(C(=O)NCc2ccc(-n3nc(C)cc3C)nc2)CN(c2nc(C)cc(Nc3cc(C)[nH]n3)n2)C1 [Compound 163]
10 to 100 nM	> 100 nM	Cc1cc(Nc2cc(C)[nH]n2)nc(N2CCC(O)(C(=O)NCc3ccccc3)CC2)c1 [Compound 102]
> 100 nM	> 100 nM	Cc1cc(Nc2cc(C)[nH]n2)nc(N2CCC(O)(C(=O)NCc3ccccc3)CC2)n1 [Compound 103]
< 10 nM	< 10 nM	COC1(C(=O)NCc2ccc(-n3cc(F)cn3)nc2)CCN(c2nc(C)cc(Nc3cc(C)[nH]n3)n2)CC1 [Compound 195]
< 10 nM	< 10 nM	Cc1cc(Nc2cc(C)[nH]n2)nc(N2CC[C@@H](C(=O)NCc3ccc(-n4cccn4)nc3)[C@@H](O)C2)c1 [Compound 134]
10 to 100 nM	10 to 100 nM	COc1ccc(CNC(=O)C2(O)CCN(c3cc(C)cc(Nc4cc(C)[nH]n4)n3)CC2)cc1 [Compound 105]
< 10 nM	< 10 nM	Cc1cc(Nc2cc(C)[nH]n2)nc(N2CC(O)(C(=O)N[C@@H](C)c3ccc(-n4cc(F)cn4)nc3)C2)c1 [Compound 145]
< 10 nM	< 10 nM	Cc1cc(Nc2cc(C)[nH]n2)nc(N2CC(C)(C(=O)N[C@@H](C)c3ccc(-n4cc(F)cn4)nc3)C2)c1 [Compound 139]
< 10 nM	< 10 nM	Cc1cc(Nc2cc(C)c(F)c(N3CC(C(=O)N(C)[C@@H](C)c4ccc(-n5cc(F)cn5)nc4)C3)n2)n[nH]1 [Compound 171]
< 10 nM	< 10 nM	Cc1cc(Nc2cc(C)[nH]n2)nc(N2CCC(CO)(C(=O)N[C@@H](C)c3ccc(-n4cc(F)cn4)nc3)CC2)c1 [Compound 217]
< 10 nM	< 10 nM	COC1(C(=O)NCc2ccc(-n3cc(F)cn3)nc2)CCN(c2cc(C)cc(Nc3cc(C)[nH]n3)n2)CC1 [Compound 193]
< 10 nM	< 10 nM	Cc1cc(Nc2cc(C)[nH]n2)nc(N2CCC(F)(C(=O)NCc3ccc(-n4cccn4)nc3)CC2)n1 [Compound 141]
< 10 nM	< 10 nM	CCC1(C(=O)N[C@@H](C)c2ccc(-n3cccn3)nc2)CN(c2nc(C)cc(Nc3cc(C)[nH]n3)n2)C1 [Compound 130]
10 to 100 nM	10 to 100 nM	COC1(C(=O)N[C@@H]2CCN(c3ccccn3)C2)CCN(c2nc(C)cc(Nc3cc(C)[nH]n3)n2)CC1 [Compound 147]
< 10 nM	< 10 nM	Cc1cc(Nc2cc(C)[nH]n2)nc(N2CC(C(=O)N[C@@H](C)c3ccc(-n4cc(F)cn4)nc3)C2)n1 [Compound 121]
< 10 nM	< 10 nM	Cc1cc(Nc2cc(C)[nH]n2)nc(N2CCC(O)(C(=O)NCc3ccc(-n4cccn4)nc3)CC2)n1 [Compound 136, N-((6-(1H-pyrazol-1-yl)pyridin-3-yl)methyl)-4-hydroxy-1-(4-methyl-6-(3-methyl-1H-pyrazol-5-ylamino)pyrimidin-2-yl)piperidine-4-carboxamide]
10 to 100 nM	10 to 100 nM	COC1(C(=O)NCc2ccc(-n3cc(C(F)F)cn3)nc2)CN(c2nc(C)cc(Nc3cc(C)[nH]n3)n2)C1 [Compound 203]
< 10 nM	< 10 nM	COC1(C(=O)NCc2ccc(-n3nc(C)cc3C)nc2)CCN(c2nc(C)cc(Nc3cc(C)[nH]n3)n2)CC1 [Compound 215]
< 10 nM	< 10 nM	CO[C@]1(C(=O)N[C@@H](C)c2ccc(-n3cc(F)cn3)nc2)CN(c2nc(C)cc(Nc3cc(C)[nH]n3)n2)[C@H]1C [Compound 199]
< 10 nM	< 10 nM	COC1(C(=O)NCc2ccc(-n3cccn3)nc2)CCN(c2nc(C)cc(Nc3cc(C)[nH]n3)n2)CC1 [Compound 161, N-((6-(1H-pyrazol-1-yl)pyridin-3-yl)methyl)-4-methoxy-1-(4-methyl-6-((5-methyl-1H-pyrazol-3-yl)amino)pyrimidin-2-yl)piperidine-4-carboxamide]
< 10 nM	< 10 nM	COC1(C(=O)NCc2ccc(-n3cc(C4CC4)cn3)nc2)CN(c2nc(C)cc(Nc3cc(C)[nH]n3)n2)C1 [Compound 178]
< 10 nM	< 10 nM	COC1(C(=O)N[C@@H](C)c2ccc(-n3cc(F)cn3)nc2)CN(c2cc(C)cc(Nc3cc(C)[nH]n3)n2)C1 [Compound 167]
< 10 nM	< 10 nM	COC1(C(=O)N(C)[C@@H](C)c2ccc(-n3cccn3)nc2)CCN(c2nc(C)cc(Nc3cc(C)[nH]n3)n2)CC1 [Compound 214]
< 10 nM	< 10 nM	Cc1cc(Nc2cc(C)[nH]n2)nc(N2CCC(C(=O)NCc3ccc(-n4cccn4)nc3)CC2)n1 [Compound 118]
